Patent publication US20210275624A1, “TREATMENTS FOR IMPROVING OR LESSENING IMPAIRMENT OF MITOCHONDRIAL FUNCTION” (priority 2020, published 2021)
Square brackets hold non-standard residues; d marks the D form. Peptide text beside a SMILES is read from it. Cya = N[C@@H](CS(=O)(=O)O)C(=O)O

Key:
[1] = system: human RPE cells; assay: Flow cytometry (Annexin V / 7-AAD) cell death and light-microscopy morphology; format: cell-based
Procedure: Human donor eyes from a donor were obtained within 24 hrs. after death from the North Carolina Organ Donor and Eye Bank, Inc. (Winston-Salem, N.C., USA) in accordance with the provisions of the Declaration of Helsinki for research involving human tissue. Cells were grown in Eagle's minimal essential medium (MEM; Invitrogen) with 10% fetal bovine serum (FBS; Thermo Scientific) and with 1× penicillin/streptomycin (Thermo Scientific) at 37° C. in a humidified environment containing 5% CO2.
(§1) Human donor RPE cells were seeded on collagen-coated 96-well plates, 24-well plates with or without coverslips, 6-well plates (Corning-Costar Incorporated, Corning, N.Y., USA). Except for the Seahorse assay, on day 6 after plating, cells were washed twice with serum-free and phenol red-free MEM (SF-MEM), treated with HQ at a various concentrations in the presence or absence of RSG (0.4 mM) in SF-MEM for various times at 37° C. RSG co-treatment refers to the condition in which cells were treated with RSG in the presence of HQ. Control refers to the condition in which cells were not treated.
RPE cells in triplicate wells of a 6-well plate were treated with HQ (150 μM) in the presence or absence of RSG (0.4 mM) for 12 hours. Cell morphology was recorded by light microscopy, and then cells were detached with 1×TrypLE and centrifuged at 300 g for 5 minutes. Cells were re-suspended with 100 μL 1×Annexin V binding buffer, incubated with 5 μL Annexin V for 10 minutes and then 5 μL 7-AAD was added to the Annexin V mixture and incubated for additional 5 minutes. Cell death was analyzed with flow cytometry.

[2] = system: HMOX-1; assay: Real-time RT-PCR (qPCR) of HMOX-1; format: cell-based, human; settings: 4 hours
Procedure: RPE cells in triplicate wells of a 12-well plate were treated with HQ (250 μM) in the presence or absence of RSG (0.4 mM) for 4 hours. Total RNA was isolated using RNeasy Plus Mini Kit according to the manufacturer's specifications and real-time quantitative reverse transcription-polymerase chain reaction (qPCR) was performed as we have described previously. Primer pairs for HMOX-1 and ribosomal protein, large, PO (RPLPO) were as follows (5′ to 3′): HMOX-1, forward: CAG GAG CTG ACC CAT GA; reverse: AGCAACTGTCGCCACCAGAA; RPLPO, forward: GGACATGTTGCTGGCCAATAA; reverse: GGG CCC GAG ACC AGT GTT.

[3] = system: heme oxygenase-1 (HO-1); assay: Western blot of HO-1; format: cell-based, human; settings: for HO-1 protein level (Western blot): 8 hours
Procedure: RPE cells in triplicate wells of a 6-well plate were treated with HQ (170 μM) in the presence or absence of RSG (0.4 mM) for 8 hours. Total protein were extracted with RIPA buffer supplemented with protease inhibitors and phosphatase inhibitors, quantified with Bradford protein assay, and subjected to SDS-PAGE and Western blot as we have previously described.^21

[4] = system: human RPE cells; assay: RNA-seq whole transcriptome analysis; format: cell-based; settings: 4 hours
Procedure: RPE cells in sextuplicate wells of a 6-well plate were treated for 4 hours with HQ (250 μM or 300 μM) in the presence or absence of RSG (0.4 mM). Total RNA was extracted using an RNeasy Mini Kit and DNA was removed with TURBO DNA-free kit. RNA quality was measured with a Bioanalyzer (Agilent Genomics, Santa Clara, Calif., USA). RNA-seq libraries were prepared from poly-A enriched messenger RNA and sequenced by GENEWIZ (South […], NJ, USA) to generate approximately 20-30 million paired-end, 150 base-pair reads per sample. RNA-seq FASTQ files were quality-tested with FastQC. Reads were aligned with STAR to human genome (GRCh38.p12) and transcriptome ([…]30) references, followed by read-quantification with featureCounts. Principal component analysis (PCA) was used to visualize the high-dimensional RNA-seq dataset using the top 15 thousand genes that had the highest average counts, as normalized by DESeq2's VST method. […] Enriched biological processes were condensed and visualized with […] with similarity metric set to small and GO term size determined by Uniport Homo Sapiens database; biologically relevant processes were selected and labeled. Six enriched KEGG pathways were selected for visualization of gene expression changes, based on their biological relevance and strength of negative correlation between HQ and RSG co-treatment. Empirical RNA-seq Sample Size Analysis (ERSSA) was used to check whether the six biological replicates used in this study were sufficient for differential expression discovery; analysis was performed with log 2FC cutoff of 0.25 and 50 subsamples at each replicate level.

[5] = system: human RPE cells; assay: Determination of Δψm (JC-1 dye); format: cell-based
Procedure: as §1, with “treated. RPE cells in triplicate wells of 96-well black plates with clear bottoms were washed with SF-MEM, loaded with 10 μM JC-1 dye in SF-MEM for 30 minutes at 37° C. and then washed twice. Cells were then treated with HQ (160 μM) with or without RSG (0.4 mM). A fluorescence plate reader was used to measure the fluorescence at various times to quantify green JC-1 monomer (490-nm excitation, 522-nm emission) and red JC-1 aggregates (535-nm excitation, 590-nm emission).” for “treated.”

SMILES	cell morphology ([1]; RSG 0.4 mM co-treatment with HQ 150 μM)	HQ-induced necrosis and apoptosis (cell death) ([1]; RSG 0.4 mM co-treatment with HQ 150 μM, 12 hours)	number of live and dead cells ([1]; RSG alone 0.4 mM, 12 hours, vs control)	HMOX-1 gene level (qPCR) ([2]; RSG 0.4 mM co-treatment with HQ 250 μM)	HO-1 protein level (Western blot) ([3]; RSG 0.4 mM co-treatment with HQ 170 μM)	cellular stress and HO-1 activation ([3]; RSG alone)	HMOX-1 gene expression increase (RNA-seq) ([4]; RSG 0.4 mM co-treatment vs 250 μM HQ alone)	HMOX-1 gene expression increase (RNA-seq) ([4]; RSG 0.4 mM co-treatment vs 300 μM HQ alone)	genes regulated (differential expression) ([4]; RSG 0.4 mM co-treatment vs HQ alone)	number of differentially expressed (DE) genes ([4]; RSG alone 0.4 mM, vs control)	Δψm (mitochondrial membrane potential) ([5]; RSG 0.4 mM co-treatment with HQ 160 μM)	cell morphology ([1]; HQ 150 μM)	cell death (necrosis, apoptosis) ([1]; HQ alone 150 μM, 12 hours)	HMOX-1 gene level (qPCR) ([2]; HQ 250 μM)	HO-1 protein level (Western blot) ([3]; HQ 170 μM)	number of genes changed (differential expression) ([4]; HQ 250 μM or 300 μM, vs control)	HMOX-1 gene expression increase (RNA-seq) ([4]; HQ 250 μM)	HMOX-1 gene expression increase (RNA-seq) ([4]; HQ 300 μM)	Δψm ([5]; HQ 160 μM vs control)
C[C@@H](O)[C@H](NC(=O)[C@H](CS(=O)(=O)O)NC(=O)CNC(=O)[C@H](CCCNC(=N)N)NC(=O)CN)C(=O)N1CCC[C@H]1C(=O)O [Risuteganib, Glycyl-L-arginylglycyl-3-sulfo-L-alanyl-L-threonyl-L-proline] (H-GRG[Cya]TP-OH)	improved HQ-induced morphological changes	significantly protected cells from HQ-induced necrosis and apoptosis	little effect	further up-regulated	further up-regulated	did not induce observable cellular stress and HO-1 activation	241%	391%	regulated thousands of genes	15 genes	significantly improved HQ-mediated reduction in Δψm								
Oc1ccc(O)cc1 [HQ, hydroquinone, reference compound]												caused cells to shrivel/detach	induced primarily necrotic cell death and much less apoptotic cell death	significantly up-regulated	significantly up-regulated	approximately seven thousand	618%	420%	significantly decreased
